Source: paper PMC7766327, “Inhibition of Pneumolysin Cytotoxicity by Hydrolysable Tannins” (Antibiotics, 2020)

Columns and labels:
[1] = test system: Ply; design: method as in PMID 15928084; conditions: cited from earlier work
[2] = target: T1, pneumolysin (Ply) (Streptococcus pneumoniae serotype 2, UniProt Q04IN8); assay: cell-based; type: cell-based
T1 construct: made in house; host or cells: E. coli BL21(DE3)
Description: Native human erythrocytes were taken into EDTA tubes. The erythrocytes were washed three times with PBS (0.15 M NaCl, 2.7 mM KCl, 8.1 mM Na2HPO4 and 1.5 mM KH2PO4) by centrifugation at 700× g for 10 min. The purified erythrocytes were stored at +4 °C. Erythrocytes (1% v/v) in PBS were mixed with 1 nM Ply and dilution series of polyphenol inhibitors in 96-well microtiter plates. The reaction was incubated for 30 min at 37 °C. The plates were centrifuged, and the supernatant was pipetted into flat-bottomed microtiter plates to measure the absorbance at 570 nm (VICTOR X4, PerkinElmer, Turku, Finland) of the released hemoglobin from lysed erythrocytes. The absorbances of triplicate measurements are presented as a function of inhibitor concentration. The IC50 values were calculated with Origin data analysis software (2016, OriginLab Corporation, Northampton, MA, USA).

[3] = target: T1, pneumolysin (Ply); assay: A549 cell cytotoxicity assay (LDH release); type: cell-based; conditions: 2 nM Ply, A549 cells, 2 h
Description: For the A549 cell cytotoxicity assay, 5000 cells/well of A549 cells were grown in Dulbecco’s modified Eagle Medium, DMEM (Thermo Fischer Scientific Inc., Waltham, MA, USA), 2 mM glutamine and 10% fetal calf serum (FCS) for 48 h in 96-well microtiter plates. Cells were washed with PBS and dilutions of PGG (0, 125, 250, 500, 1000 and 2000 nM) and 2 nM Ply in PBS were added to the wells and they were incubated for 2 h at 37 °C in 5% CO2 atmosphere. Ply cytotoxicity was determined with the Cytotoxicity Detection Kit^PLUS (Roche Diagnostics GmbH, Mannheim, Germany) according to the manufacturer’s instructions. The released LDH was measured at A490. Complete lysis control was measured in the presence of 0.02% Triton X-100, and for background measurements, cells were incubated without Ply. The values were normalized by calculating using the equation (A490 Ply+inhibitor − A490 Background)/(A490 Triton X-100 − A490 Background)(1)

[4] = target: T1, pneumolysin (Ply); assay: Pneumolysin oligomerization assay using erythrocytes; type: cell-based
Description: For the oligomerization assay, 100 nM Ply (3 µg), 1% (v/v) erythrocytes and 100 µM PGG in PBS were incubated for 2 min at 25 °C and were centrifuged at 16,000× g for 30 min at +7 °C. The pellet containing intact erythrocytes and the membranes from lysed cells were suspended into the water to complete the lysis and recentrifuged at 16,000× g for 30 min. The membranes were suspended into an SDS-PAGE sample buffer (60 mM Tris-HCl, pH 6.8; 2% SDS; 0.001% bromophenol blue; 0.5% β-mercaptoethanol) without incubation at 95 °C and the proteins were separated in 6% SDS-PAGE gel. The gel was stained with Coomassie blue (40% methanol; 10% acetic acid; 0.25% Brilliant blue R-250) and destained in 20% methanol and 5% acetic acid overnight. The proteins were transferred to polyvinyldifluoride (PVDF) membrane for 30 min, 25 V in SDS-PAGE running buffer (25 mM Tris, 190 mM glycine, 0.1% SDS) using the Trans-Blot Turbo Transfer System (Bio-Rad Laboratories Inc., Hercules, CA, USA). The membrane was blocked with 5% (w/v) defatted milk powder in TBS-Tween (10 mM Tris pH 7.5; 150 mM NaCl; 0.05% Tween 20) for 30 min at 25 °C. The His-tagged Ply was detected with anti-His antibody (1:5000 dilution, Sigma-Aldrich, St. Louis, MO, USA) and horseradish […] anti-mouse antibody (1:10,000 dilution, DakoCytomation, Glostrup, Denmark). […]

[5] = target: T1, pneumolysin (Ply); assay: Precipitation assay of pneumolysin-tannin interaction; type: binding
Description: The precipitation assay with tannins was done as described previously with bovine serum albumin [22]. First, 10 μM of Ply and dilution series of polyphenols (5–1000 µM) were incubated in a Na-acetate buffer (200 mM NaCl and 50 mM CH3COONa; pH 5.0) at 25 °C for 30 min with shaking. The reactions were carried out in Multiskan Ascent plate reader (Labsystems, Vantaa, Finland) and the precipitation was measured at 414 nm. The minimum concentration precipitating Ply was calculated with Origin data analysis software (2016, OriginLab Corporation, Northampton, MA, USA).

T1 sequence (Q04IN8 whole entry): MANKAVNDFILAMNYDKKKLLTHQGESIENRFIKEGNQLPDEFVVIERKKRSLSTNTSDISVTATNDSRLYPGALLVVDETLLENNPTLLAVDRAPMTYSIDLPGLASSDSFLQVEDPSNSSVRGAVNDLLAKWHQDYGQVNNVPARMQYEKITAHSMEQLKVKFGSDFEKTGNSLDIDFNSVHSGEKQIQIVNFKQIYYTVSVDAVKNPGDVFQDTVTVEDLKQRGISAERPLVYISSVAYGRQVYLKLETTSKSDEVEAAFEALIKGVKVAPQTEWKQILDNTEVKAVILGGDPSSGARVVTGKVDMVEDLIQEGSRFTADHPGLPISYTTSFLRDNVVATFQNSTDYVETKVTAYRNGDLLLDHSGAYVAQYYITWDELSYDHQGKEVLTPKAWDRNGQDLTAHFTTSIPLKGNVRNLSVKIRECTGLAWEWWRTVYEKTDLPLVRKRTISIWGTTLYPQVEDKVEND

Row | SMILES | Concentration required for inhibition of Ply hemolytic activity [1] | Hemolysis Inhibition Inhibitory Power [2] | IC50 ([2]; Hemolysis Inhibition IC50, 1 nM Ply, 1% human erythrocytes, 30 min 37 °C, logistic fit) [nM] | IC50 ([2]; IC50 (screening with hemolysis assays), estimated from the inhibition curves, two-fold dilutions of tannins) [nM] | Inhibitor class in hemolysis inhibition assay ([2]; classification by IC50 from two-fold dilutions) | inhibition at 0.5 µM ([3]; 500 nM PGG, compared to pneumolysin alone) [%] | inhibition at 1 µM ([3]; 1000 nM PGG, compared to pneumolysin alone) [%] | inhibition at 2 µM ([3]; 2000 nM PGG, compared to pneumolysin alone) [%] | Inhibition of LDH release ([3]; ≤250 nM PGG) | Ply oligomer complex on erythrocytes ([4]; 100 µM PGG, 100 nM Ply, Coomassie-stained SDS-PAGE) | Concentration that still inhibited Ply oligomerization ([4]; dilution series of PGG (0–100 µM), Western blotting with anti-His antibody) [µM] | Minimum Precipitating Concentration ([5]; 10 μM Ply, Na-acetate buffer pH 5.0, 25 °C, 30 min, absorbance 414 nm) [µM] | Precipitation Relative Power ([5]; fold compared to vescalagin (=1)) | Fold higher precipitating concentration compared to hemolysis IC50 ([5]; minimum precipitating concentration vs hemolysis IC50) [fold]
1 | O=C(O[C@@H]1Cc2c(O)cc(O)cc2O[C@@H]1c1cc(O)c(O)c(O)c1)c1cc(O)c(O)c(O)c1 [EGCG, epigallocatechin gallate] | micromolar concentrations were required |  |  |  |  |  |  |  |  |  |  |  |  | 
2 | O=C(OC[C@H]1O[C@@H](OC(=O)c2cc(O)c(O)c(O)c2)[C@H](OC(=O)c2cc(O)c(O)c(O)c2)[C@@H](OC(=O)c2cc(O)c(O)c(O)c2)[C@@H]1OC(=O)c1cc(O)c(O)c(O)c1)c1cc(O)c(O)c(O)c1 [PGG, 1,2,3,4,6-penta-O-galloyl-β-D-glucose] |  | 13 | 18 ± 0.7 | 10 | potent (potent inhibitors (IC50 10–30 nM)) | 60 | 87 | 90 | moderate inhibition | abolished | 30 | 14 | 58 | 770
